Laboratory results reported in US20160074291A1, “ANTI-AGING SKIN CARE COMPOSITIONS AND REGIMENS” (The Procter & Gamble Company, priority 2014, published 2016).

Legend:
[1] = tested on: skin barrier formation; test: Eigengene analysis of younger-appearance genes, skin barrier; format: cell-based; details: cultured human keratinocytes
[2] = tested on: "Clear and Detox" module genes; test: Eigengene analysis of "Clear and Detox" co-expression module; details: FIG. 8
[3] = tested on: "Repair and Rebuild" associated genes; test: Eigengene analysis of "Repair and Rebuild" co-expression module; details: 301 genes, FIG. 9

Row | Substance | effects relating to successful aging in skin barrier formation [1] | effect on "Clear and Detox" eigengene [2] | effect on "Repair and Rebuild" eigengene [3]
1 | palmitoyl-lysine-threonine [Pal-KT] | Effects relating to successful aging were also identified | significantly up-regulates | –
2 | palmitoyl-lysine-threonine-threonine-lysine-serine [Pal-KTTKS] | – | – | significantly up-regulate
